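1) Cells in 96-well plates. 2) Compound, 48 h, 5 concentrations. 3) Linear interpolation between surrounding doses. 4) Unreached endpoint = highest concentration. Here, GI50 denotes the concentration required for 50% inhibition of growth. TGI: total growth inhibition.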
Legend:
Test in all cases: NCI-60 cell line screen, 48 h
TK-10 renal = test system: TK-10 renal
KM12 colon = test system: KM12 colon
BT-549 breast = test system: BT-549 breast
786-0 renal = test system: 786-0 renal
HCT-116 colon = test system: HCT-116 colon
SF-539 CNS = test system: SF-539 CNS
OVCAR-5 ovarian = test system: OVCAR-5 ovarian
HL-60(TB) leukemia = test system: HL-60(TB) leukemia
HCC-2998 colon = test system: HCC-2998 colon
RXF 393 renal = test system: RXF 393 renal

Compound | GI50 (TK-10 renal) | TGI (TK-10 renal) | GI50 (KM12 colon) | TGI (KM12 colon) | GI50 (BT-549 breast) | TGI (BT-549 breast) | GI50 (786-0 renal) | TGI (786-0 renal) | GI50 (HCT-116 colon) | TGI (HCT-116 colon) | GI50 (SF-539 CNS) | TGI (SF-539 CNS) | GI50 (OVCAR-5 ovarian) | TGI (OVCAR-5 ovarian) | GI50 (HL-60(TB) leukemia) | TGI (HL-60(TB) leukemia) | GI50 (HCC-2998 colon) | TGI (HCC-2998 colon) | GI50 (RXF 393 renal) | TGI (RXF 393 renal)
O=C(Nc1ccc(Br)cc1F)c1cc(F)ccc1O | 3.26 µM | 18 µM | 2.04 µM | 5.45 µM | 0.356 µM | 1.4 µM | 2.41 µM | 7.49 µM | 440 nM | 1.96 µM | 0.42 µM | 4.2 µM | 3.85 µM | > 100 µM | 0.485 µM | 2.89 µM | 2.37 µM | 8.45 µM | 0.554 µM | 3.1 µM
N#Cc1c(N)nc(N2CCOCC2)c(C#N)c1-c1ccncc1 | 72.4 µM | > 100 µM | > 100 µM | > 100 µM | 95.8 µM | > 100 µM | 95.7 µM | > 100 µM | > 100000 nM | > 100 µM | > 100 µM | > 100 µM | 27 µM | > 100 µM | 62.9 µM | > 100 µM | 13.3 µM | 64.3 µM | > 100 µM | > 100 µM
COc1ccccc1/C=N\N/C(N)=N\N=C\c1ccccc1OC | 0.524 µM | 8.89 µM | 0.264 µM | 1.36 µM | 0.785 µM | 3.56 µM | 0.609 µM | 5.01 µM | 358 nM | 5.55 µM | 0.264 µM | 1.02 µM | 3.36 µM | > 100 µM | 0.215 µM | 0.558 µM | 1.03 µM | 11.3 µM | 0.265 µM | > 100 µM
COC(=O)COc1ccccc1/C=C1\N=C(c2ccccc2)N(c2cc(C(F)(F)F)ccc2Cl)C1=O | 56.3 µM | > 100 µM | 41.7 µM | > 100 µM | 28.4 µM | 86.2 µM | 91.2 µM | > 100 µM | 38200 nM | > 100 µM | 42.7 µM | > 100 µM | > 100 µM | > 100 µM | 31.1 µM | > 100 µM | 36.3 µM | > 100 µM | 71.6 µM | > 100 µM
CCOC(=O)c1ccc(NC(=O)Oc2ccc3c(C)cc(=O)oc3c2)cc1 | – | > 100 µM | – | > 100 µM | – | 89.5 µM | – | > 100 µM | – | 82.9 µM | – | > 100 µM | – | > 100 µM | – | 62.2 µM | – | 51.1 µM | – | > 100 µM
O=C(Nc1ccc(Nc2ccncc2)cc1)c1ccc([N+](=O)[O-])cc1 | 11.2 µM | 31.3 µM | 4.23 µM | 17.3 µM | 11.6 µM | 28.2 µM | 3.47 µM | 14.6 µM | 2930 nM | 17 µM | 3.58 µM | 13.2 µM | 9.82 µM | > 44.7 µM | 4.43 µM | > 24.6 µM | 2.77 µM | 12.3 µM | 3.35 µM | 12.4 µM
COc1cc(Nc2ncccc2C(=O)NCc2cn(Cc3cccc(Oc4ccccc4)c3)nn2)cc(OC)c1 | 51.6 µM | > 100 µM | 3.84 µM | > 100 µM | 7.16 µM | > 100 µM | 6.73 µM | > 100 µM | 4340 nM | > 100 µM | 4.39 µM | > 100 µM | > 100 µM | > 100 µM | 3.97 µM | > 100 µM | 9.6 µM | > 100 µM | 3.77 µM | > 100 µM
CN1CCN(C2CCN(C(=O)Nc3cc(Oc4ccc(NC(=O)C5(C(=O)Nc6ccc(F)cc6)CC5)c(F)c4)ccn3)CC2)CC1 | 0.365 µM | > 10 µM | 0.292 µM | > 2.52 µM | 1.02 µM | > 2.71 µM | 1.67 µM | > 10 µM | 1050 nM | > 10 µM | 0.994 µM | > 2.2 µM | 1.58 µM | > 10 µM | 1.39 µM | > 3.33 µM | > 2.04 µM | > 10 µM | 0.918 µM | > 2.4 µM
CC1(C)S[C@@H]2[C@H](NC(=O)C3(N)CCCCC3)C(=O)N2[C@H]1C(=O)O | – | > 100 µM | – | > 100 µM | – | > 100 µM | – | > 100 µM | – | > 100 µM | – | > 100 µM | – | > 100 µM | – | > 100 µM | – | > 100 µM | – | > 100 µM
O=C(O)COc1ccc2c(=O)c3sc4c(=O)c5ccccc5c(=O)c4c3c(=O)c2c1 | 23 µM | 46.5 µM | 24.3 µM | > 100 µM | 6.99 µM | 21.8 µM | 21.8 µM | 76.1 µM | 15700 nM | 63.3 µM | 13.2 µM | 26.1 µM | 17.7 µM | 34.3 µM | 24.1 µM | 61.3 µM | 11.2 µM | 26.7 µM | 12.6 µM | 28.1 µM

Reference: PubChem BioAssay (NCI)
